Target: T1, MIF produced by THP-1 cells (Homo sapiens, UniProt P14174)
T1 construct: a test cell may express the MIF naturally (e.g., THP-1 cells); endogenous in cells; host or cells: THP-1 cells stimulated with LPS
T1 sequence (P14174 2-115 limits assumed): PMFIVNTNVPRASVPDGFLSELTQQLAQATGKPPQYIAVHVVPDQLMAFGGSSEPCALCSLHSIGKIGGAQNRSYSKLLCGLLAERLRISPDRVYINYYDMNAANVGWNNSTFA
Assay: ELISA of immunoreactive MIF from LPS stimulated THP-1 cells treated with compound
Format: cell-based
Settings: LPS stimulated THP-1 cells, incubated overnight; read-out: ED50, inhibition of the ability of the antibody to recognize MIF (ELISA)
Protocol: Alternatively, ELISA may be preferred to detect and quantify the amount of MIF in cell supernatants. ELISA is preferred for detection in high throughput screening. Briefly, 96-well plates are coated with an anti-MIF antibody or anti-tag antibody, washed, and blocked with 2% BSA. Cell supernatant is then added to the wells. Following incubation and washing, a second antibody (e.g., to MIF) is added. The second antibody may be coupled to a label or detecting reagent, such as an enzyme or to biotin. Following further incubation, a developing reagent is added and the amount of MIF determined using an ELISA plate reader. The developing reagent is a substrate for the enzyme coupled to the second antibody (typically an anti-isotype antibody) or for the enzyme coupled to streptavidin. Suitable enzymes are well known in the art and include horseradish peroxidase, which acts upon a substrate (e.g., ABTS) resulting in a colorimetric reaction. It is recognized that rather than using a second antibody coupled to an enzyme, the anti-MIF antibody may be directly coupled to the horseradish peroxidase, or other equivalent detection reagent. If desired, cell supernatants may be concentrated to raise the detection level. Further, detection methods, such as ELISA and the like may be employed to monitor intracellular as well as extracellular levels of MIF. When intracellular levels are desired, a cell lysate is preferred. When extracellular levels are desired, media can be screened.
In another experiment (FIG. 2), varying concentrations of five different inhibitor analogs were added to LPS stimulated THP-1 cells and allowed to incubate overnight. The following day the amount of immunoreactive MIF detected was evaluated by ELISA. Compound 7e inhibited the ability of the antibody to recognize MIF in a dose dependent fashion with an ED50 of 2 μM, similar to the response obtained with analogs compound 7b and compound 7d.
In a further experiment (FIG. 3), the ability of compound 7e to decrease the immunoreactivity of MIF produced by THP-1 cells was determined. THP-1 cells were treated with 10 μg/ml of LPS and 10 μM of compound 7e was added at various times post-LPS stimulation and immunoreactivity monitored with an anti-MIF monoclonal. […] Thus, this experiment measures the activity of compounds or buffer alone controls on MIF detection when the compounds are initially added at various times to cell cultures and then the corresponding conditioned media samples are processed in a time dependent fashion thereafter.

EC50 [nM]	Structure (SMILES)
~2000	Cn1c(=O)c([N+](=O)[O-])c(N2CCN(C(=O)c3ccccc3)CC2)c2ccccc21 [compound 7b]
~2000	CCOC(=O)c1c(N2CCN(C(=O)c3ccccc3)CC2)c2ccccc2n(C)c1=O [compound 7d]
